The subject of data set [1] is hESCs (BG02). As to the kind of experiment: Real-time impedance assay (RT-CES) for inhibitory and cytotoxic agents on hESCs. Conditions: 10 μM compound added after about 24 hours, cultured about 5 more days; compared to DMSO control. An excerpt:
The foregoing 176 selected compounds from the complete LOPAC1280™ library were then used to screen human pluripotent stem cells, e.g., hESCs, and differentiating cultures during Stage 1 (definitive endoderm) using a real-time impedance assay (ACEA biosciences RT-CES system). The RT-CES system uses 96-well trays that contain embedded microsensors to monitor changes in electrical impedance, which is translated into a measure of cell index. Any overt alteration within a cell culture can be detected, including but not limited to cell proliferation, migration, cell spreading, apoptosis, differentiation and the like. […] An increase in the cell index indicates proliferation of the cells, for example, proliferation of the undifferentiated cells. […] See also FIG. 1. […] A “scallop” cell index is one which remains high due to a confluent culture of cells, but will go down and up (scallop) between daily feedings. Conversely, cells undergoing differentiation have distinctive patterns, such as peaks and troughs in the cell index, potentially indicative of an epithelial-to-mesenchymal transition, flattening, cell migration, apoptosis or similar differentiation and growth related changes.
Impedance Assay for Inhibitory and Cytotoxic Agents. Human pluripotent stem cells, e.g., 2×10^4 hESCs (BG02), were cultured in DC-HAIF, a heregulin-based defined media, with daily feeding in the impedance monitoring plates. After about 24 hours, and 10 μM of the selected LOPAC1280™ compound was added to each well (see arrowhead in FIGS. 3 A & B) and cultured for about an additional 5 days.

For data set [2], the system named is differentiating Stage 1 cultures (definitive endoderm). Nature of the data set: Secondary screen on differentiating Stage 1 cultures in 6-well trays. Format: cell-based, human. Conditions: compounds added to differentiating Stage 1 cultures. The source says:
(§1) The impedance assay on the hESCs using the compounds in Table 4 above gave greater than twenty (20) hits. However, the ideal candidate compound of the present invention should not only be inhibitory or cytotoxic to human pluripotent stem cells, such as hESCs or hIPSCs, but should at the same time have no effect on cell viability of differentiated or differentiating cell populations including Stage 1, 2, 3, 4 and 5 type cells cultures (definitive endoderm, foregut endoderm, posterior foregut, pancreatic endoderm and endocrine cells, respectively). […] Approximately 3×10^4 hES cells were plated per well and grown for 24 hrs in DC-HAIF defined medium (i.e. StemPro® hESC SFM medium (Life Technologies, Carlsbad, Calif.). Stage 1 or definitive endoderm differentiation was then induced by changing the medium and culturing in RPMI, 100 ng/mL Activin A, and 10 ng/mL of FGF2. […] of GSK-3 beta Inhibitor 15 (Calbiochem #361558) as added to the culture for the first 24 hours of differentiation only. 10 μM of each of the candidate compounds were added about 48 hours or 2 days after differentiation was induced (see FIGS. 3 C & D, large arrowhead), and the cells were cultured for an additional 2 days.
Secondary Screen with Selected Compounds. A secondary screen using 9 of the 10 candidate compounds in Table 5 was performed by adding the compounds to differentiating Stage 1 cultures (definitive endoderm) as described above. For the secondary screen, larger standard 6-well trays were used instead of the RT-CEAS 96-well culture plates used in primary screens employing impedance assays. Only 9 of the 10 compounds in Table 5 were tested because the 10th was not available in sufficient quantity at the time the assays were performed. In the larger, 6-well trays, 5 of the 9 compounds listed in Table 5 had no effect on viability of differentiating cells or differentiated definitive endoderm. […] This assay also confirmed that the viability of differentiating cells and differentiated definitive endoderm cells was apparently consistent regardless of the numbers of cells tested, or the size, volume, or source of the culture vessel.

In data set [3] the test system is adherent Stage 1 cell cultures of BG02. As to the kind of experiment: Q-PCR marker gene expression, adherent Stage 1 cultures of BG02. Format: cell-based, human. The source says:
FIGS. 4A-4G are bar graphs showing the relative gene expression levels of OCT4 (FIG. 4A), NANOG (FIG. 4B), FOXA2 (FIG. 4C), SOX17 (FIG. 4D), SOX7 (FIG. 4E), PAX6 (FIG. 4F) and ZIC1 (FIG. 4G) BG02 with treatment of candidate selective cytotoxic agents from the LOPAC1280™ sublibrary (Table 4) to adherent Stage 1 cell cultures of BG02. Expression levels were normalized using the geometric mean of three housekeeping genes, GUSB, CYCG and TBP. The graphs depict fold regulation compared to the hESC sample. The large arrow heads indicate time of the drug treatment. D=DMSO (control); C=Chelerythrine Chloride; A=AG490; B=BTO-1; De=Dephostatin; S=SU6656.
Screen for Effects on Stages 1-5 Differentiation. To further determine whether these 5 candidate compounds added at Stage 1 affected other differentiated cell types (e.g. Stages 2-5: foregut endoderm, posterior foregut endoderm, pancreatic endoderm and endocrine precursor cells, respectively), hES were differentiated in the presence or absence of compounds, and RNA samples were taken at various stages for gene expression analysis by Q-PCR.
Gene expression levels were plotted relative to a DMSO treated control at the end of Stage 1 (FIG. 4), and relative to undifferentiated hESC aggregates (FIGS. 5 and 6). See “Control” in FIGS. 4, 5 & 6. […] Chelerythrine chloride, Dephostatin, SU 6656 and Tyrphostin AG 490 compounds each caused an increase in SOX17 gene expression as compared to the DMSO control, consistent with the gene expression profile for Stage 1 definitive endoderm cell cultures (FIG. 4D). However, Tyrphostin AG 490 (AG) and SU 6656 (SU) each caused a decrease in FOXA2 (HNF3β) expression as compared to the DMSO control, indicating adverse effects of these two compounds on definitive endoderm (FIG. 4C). Yet none of the compounds appeared to substantially impact expression of non-definitive endoderm markers including SOX7, PAX6 or ZIC1 (FIGS. 4 E, 4F & 4G), and were not, therefore, excluded on the basis of inducing differentiation to other cell types. […] This compound neither decreased OCT4 or NANOG expression, nor increased FOXA2 (HNF3β) or SOX17 expression, as would have been expected of a pluripotent stem cell-selective inhibitor/cytotoxic agent.

Data set [4] relates to undifferentiated hESCs growing in adherent culture. As to the kind of experiment: EC50 of cytotoxic effect on undifferentiated hESCs in adherent culture, real-time impedance assay. The settings on record: Homo sapiens, read-out: EC50 concentrations for hES cells (cytotoxic effect). The data set is classed as cell-based, human. The procedure:
In summary, the final three (3) candidates identified from both the primary and secondary screens (EXAMPLE 1) and the full screen of the LOPAC1280™ collection (EXAMPLE 2) were Chelerythrine Chloride, Caffeic acid and Ivermectin. FIG. 11 lists the known or inferred mode(s) of action for these three compounds, as well as their structures. EC50 values for the respective cytotoxic effects on undifferentiated hESCs growing in adherent culture were determined using real-time impedance assays.
Depletion of OCT4-positive cells during Stage 1 differentiation was examined using the plating assay described above. Stage 1 differentiations of hES cells were treated from day 1 to 2 with the candidate compounds as described in Example 2 (chelerythrine chloride, caffeic acid and Ivermectin), at their EC50 concentrations for hES cells. Plated untreated and DMSO-treated aggregates were indistinguishable, and both contained discrete clusters of OCT4-positive cells. See FIG. 13A top and bottom panels for a DMSO treated example. The intensity of OCT4-positive staining in differentiating aggregate cell cultures treated with DMSO (control) was equivalent to undifferentiated hES cells.

Data set [5] deals with hESCs. As to the kind of experiment: Secondary screen, lowest effective dose on hESCs. The data set is classed as cell-based, human. The settings on record: lowest concentration that elicited cytotoxicity, range 0.1 to 50 μM, read-out: ED hESC (lowest effective dose). The procedure: To expand the number of potential candidate hESC cytotoxic and inhibitory compounds, the complete LOPAC1280™ collection (containing 1,280 compounds) was screened. In the primary screen, cytotoxicity was tested on undifferentiated hESCs (about 3×10^4 BG01 cells) in 16 standard 96-well trays, in DC-HAIF defined medium on growth factor-reduced MATRIGEL™ diluted 1:200, which were fed daily (FIG. 7A). 10 μM of each compound was added to the hESCs one day after plating, and the cells were cultured for an additional 2 days. Plates were then fixed and stained for alkaline phosphatase (AP) to identify relative decreases in proliferation or growth of hESCs (as reduced AP staining), indicative of lower proportions of hESCs. See the circled wells in FIG. 7A.
(§2) Using a range of different concentrations from 0.1 to 50 μM, the forty compounds in Table 6 were re-screened (secondary screen) using hESCS and NPCs. The effective dose (ED) was defined as the lowest concentration of a compound that elicited cytotoxicity during the secondary screen. […] The darker wells were indicative of the increased numbers or percentages of proliferating or growing pluripotent stem cells in the wells. In addition, these 40 compounds were screened on differentiating definitive endoderm (DE) cell cultures in 96-well plate impedance assays (described above) to determine which of these compounds were not cytotoxic to definitive endoderm cells at the lowest effective dose on either hESC or NPC. […] See “ACEA DE” column in Table 6.

Data set [6] relates to NPCs. Nature of the data set: Secondary screen, lowest effective dose on NPCs. Format: cell-based, human. The settings on record: lowest concentration that elicited cytotoxicity, range 0.1 to 50 μM, read-out: ED NPC (lowest effective dose). On the procedure:
In addition, the complete LOPAC1280™ collection was also screened for effects on neural progenitor cells (NPCs) that were derived from the hESCs. Neural progenitors were plated in serum-free MedII conditioned medium at 6×10^4 cells/well and fed daily. Two days after plating, 10 μM of each compound was added and the cells were cultured for an additional 2 days. […] Reduced crystal violet staining was indicative of lower proportions of NPCs. See circled wells in FIG. 7B. The left and right columns of the LOPAC1280™ plates from which the compounds were dispensed were empty and served as untreated controls. […] See Table 6 below listing the name and class of activity of each candidate compound identified in this screen (except chelerythrine chloride, which is listed in Table 5). ChCl was not included in the subsequent round of screening. Therefore only 40 compounds were tested further.
as §2

For data set [7], the system named is differentiating definitive endoderm (DE) cell cultures. Nature of the data set: 96-well plate impedance assay (ACEA) on differentiating definitive endoderm at lowest effective dose. Conditions: at the lowest effective dose on either hESC or NPC. More on the design: key: Viable: Compounds that did not appear to be cytotoxic toward differentiating DE cultures were marked as “viable”, meaning that the compound did not affect the survival, growth, proliferation or differentiation of the differentiated cells. Format: cell-based, human.
Excerpt: as §1, §2

Where a name gives a salt, the structure may show the parent alone. Read-outs that look alike come from different tables or passages of the source.

Consider `N#Cc1cc([N+](=O)[O-])c2sc(C(N)=O)[n+]([O-])c2c1` [BTO-1], for which the “cell index (impedance); inhibitory or cytotoxic effect on the hESCs” value in data set [1] was “significant decrease”. Moreover, the “Viability of Definitive Endoderm” value in data set [2] is given as “Viable”. Moreover, in data set [3] (end of Stage 1, compared to DMSO control (FIG. 4C)), the “FOXA2 (HNF3β) expression” value was “did not appear to have any effect”. Moreover, the SOX17 gene expression result in data set [3] (end of Stage 1, compared to DMSO control (FIG. 4D)) was “did not appear to have any effect”. The “OCT4 and NANOG gene expression” value in data set [3] (end of Stage 1, compared to DMSO control (FIGS. 4A, 4B)) is “did not appear to have any effect”.
`COc1ccc2c(c[n+](C)c3c4cc5c(cc4ccc23)OCO5)c1OC` [Chelerythrine chloride]: the “cell index (impedance); inhibitory or cytotoxic effect on the hESCs” value in data set [1] was “significant decrease”. Besides, in data set [4], the EC50 came out at 1.4 µM.
In the case of `CC(Cc1ccc(O)c(O)c1)C(C)Cc1ccc(O)c(O)c1` (stereo not drawn) [Nordihydroguaiaretic acid from Larrea, Nordihydroguaiaretic acid from Larrea divaricata (creosote bush)], the “cell index (impedance); inhibitory or cytotoxic effect on the hESCs” value in data set [1] was “significant decrease”. Moreover, the minimal effective concentration in data set [5] and in data set [6] was 5 µM in each case. Besides, the “ACEA DE” value in data set [7] is reported as “Viable”.
`Oc1ccccc1O` [Pyrocatechol]: the minimal effective concentration in data set [5] (Homo sapiens) came to 5 µM; in data set [6] (Homo sapiens, 48 h) it was 5 µM. In data set [7], the “ACEA DE” value is “Viable”.
For `CCN(CC)CCCC(C)Nc1c2ccc(Cl)cc2nc2ccc(OC)cc12` (stereo not drawn) [Quinacrine dihydrochloride], the minimal effective concentration turned out to be 10 µM in data set [5] (Homo sapiens) and 25 µM in data set [6] (Homo sapiens, 48 h). The “ACEA DE” value in data set [7] is “Viable”.
Regarding `CC1=C(/C=C/C(C)=C/C=C/C(C)=C/C(=O)Nc2ccc(O)cc2)C(C)(C)CCC1` [Retinoic acid p-hydroxyanilide], the figures for the minimal effective concentration in data set [5] and in data set [6] were 1 µM and 5 µM, respectively. Also, in data set [7], the “ACEA DE” value is listed as “Viable”.
Turning to `COc1ccc(CCCOC(Cn2ccnc2)c2ccc(OC)cc2)cc1` (stereo not drawn) [SKF 96365], the minimal effective concentration in data set [5] (Homo sapiens) was determined as 25 µM; in data set [6] (Homo sapiens, 48 h), 5 µM. Further, in data set [7], the “ACEA DE” value is reported as “Viable”.
Turning to `N#C/C(=C\c1ccc(O)c(O)c1)C(=O)Nc1ccccc1` [Tyrphostin AG 494], the “cell index (impedance); inhibitory or cytotoxic effect on the hESCs” value in data set [1] was “significant decrease”.
In the case of `COc1ccc2c(c1)CC[C@@H]1[C@@H]2CC[C@]2(C)[C@@H](NCCCCCCN3C(=O)CCC3=O)CC[C@@H]12` [U-73343], the minimal effective concentration was 10 µM in data set [5] and 5 µM in data set [6]. Moreover, the “ACEA DE” value in data set [7] is recorded as “Viable”.
